Laboratory results published in patent US20110159111A1, “PHARMACEUTICAL COMBINATIONS” (priority 2006, published 2011).
Read-outs that look alike come from different tables or passages of the source. Blank lines part the entries; values can stand above or below the compound they belong to.

What was measured:
[1] = antitumour agent; cited from earlier work
[2] = Solubilities of acid addition salts of 1-(2,6-difluorophenyl)-N-[3-(5-morpholin-4-ylmethyl-1H-benzimidazol-2-yl)-1H-pyrazol-4-yl]-urea; assay type: physicochemical
Procedure: This was carried out as described in Example 61 of WO 2006/070195 at pages 173 to 175 (the content of which is incorporated herein by reference).

[3] = system: Chronic Myeloid Leukaemia; details: CML patients in blast phase; cited from earlier work
[4] = system: human colon carcinoma cell line HCT 116; assay: Anti-proliferative activity, HCT-116 cell line (Set B); assay type: cell-based; details: HCT 116 (ECACC No. 91091005), Set B Example 1
Excerpt: Anti-proliferative Activity
See Example 15 of WO 2006/077426 at pages 100-101 (which is incorporated herein by reference).

[5] = Thermogravimetric analysis (TGA); assay type: physicochemical; details: heated at 10° C./min
Procedure: Approximately 5 mg of sample (accurately weighed) was placed into a platinum TGA pan and loaded into a TGA 7 gravimetric analyser. The sample under study was then heated at a rate of 10° C./min (from ambient to 300° C.) and the resulting change in weight monitored. A dry nitrogen purge gas at a flow rate of 20 ml/min was used to produce an inert atmosphere and prevent oxidation of the sample during heating. Prior to analysis the instrument was weight calibrated using a 100 mg reference standard and temperature calibrated using an Alumel reference standard (using the Curie point transition temperature).

[6] = Vapour sorption/desorption analysis (IgaSorp balance); assay type: physicochemical
Procedure: Approximately 20 mg of sample was placed into a wire-mesh vapour sorption balance pan and loaded into an ‘IgaSorp’ vapour sorption balance (Hiden Analytical Instruments) held at 25+/−0.1° C. The sample was then dried by maintaining a 0% humidity environment (using mass flow control apparatus) until no further weight change was recorded. Subsequently, the sample was then subjected to a ramping profile from 0-90% relative humidity (% RH) at 10% RH increments, maintaining the sample at each step until equilibration had been attained (99.5% step completion).
Upon reaching equilibration, the % RH within the apparatus was ramped to the next step and the equilibration procedure repeated. After completion of the sorption cycle, the sample was then dried using the same procedure. The weight change during the sorption/desorption cycles was then monitored, allowing for the hygroscopic nature of the sample to be determined.

[7] = clinical studies; cited from earlier work
[8] = system: chronic lymphocytic leukaemia; details: initial therapy, symptomatic CLL patients; cited from earlier work
PKG = target: T1, PKG (Homo sapiens, UniProt Q13976); details: cited from earlier work
T1 sequence (Q13976 1-671): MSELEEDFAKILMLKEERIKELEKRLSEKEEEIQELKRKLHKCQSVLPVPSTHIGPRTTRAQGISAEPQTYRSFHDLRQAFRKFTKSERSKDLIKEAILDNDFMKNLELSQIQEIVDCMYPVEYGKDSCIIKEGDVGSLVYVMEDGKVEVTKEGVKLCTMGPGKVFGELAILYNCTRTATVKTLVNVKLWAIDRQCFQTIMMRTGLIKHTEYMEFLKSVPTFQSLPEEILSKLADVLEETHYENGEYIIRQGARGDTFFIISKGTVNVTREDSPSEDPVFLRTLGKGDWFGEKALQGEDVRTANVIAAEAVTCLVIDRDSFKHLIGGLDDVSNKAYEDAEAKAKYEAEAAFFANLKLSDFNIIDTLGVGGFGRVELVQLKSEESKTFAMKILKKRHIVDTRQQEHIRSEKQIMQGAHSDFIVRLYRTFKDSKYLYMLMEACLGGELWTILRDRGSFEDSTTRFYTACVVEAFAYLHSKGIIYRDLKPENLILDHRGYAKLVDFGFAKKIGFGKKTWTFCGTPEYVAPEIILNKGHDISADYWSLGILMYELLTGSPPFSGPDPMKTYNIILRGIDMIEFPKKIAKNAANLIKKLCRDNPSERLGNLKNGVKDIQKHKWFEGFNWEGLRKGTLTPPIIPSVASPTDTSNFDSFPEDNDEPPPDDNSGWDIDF

PKC = details: cited from earlier work
OVCAR-3 tumour cells = details: concentrations of 50 and 100 microM; cited from earlier work
[9] = system: Acute Promyelocytic Leukemia; details: APL patients; cited from earlier work
[10] = system: P-glycoprotein-overexpressing subline of CCRF-CEM; details: cited from earlier work
[11] = Gravimetric vapour sorption (GVS); assay type: physicochemical; details: forms of 1-cyclopropyl-3-[3-(5-morpholin-4-ylmethyl-1H-benzoimidazol-2-yl)-1H-pyrazol-4-yl]-urea; 25° C., 0-95% RH
Procedure: E. Gravimetric Vapour Sorption (GVS):
The sample size was ca. 10-25 mg. […] The sample was loaded and unloaded at room humidity and temperature (ca. 40% RH, 25° C.) and analysed afterwards by XRPD (using a Bruker AXS C2 GADDS system).

Compound: CCN[C@H]1CO[C@@H](O[C@H]2[C@H](O[C@H]3C#C/C=C\C#C[C@]4(O)CC(=O)C(NC(=O)OC)=C3/C4=C\CSSSC)O[C@H](C)[C@@H](NO[C@H]3C[C@H](O)[C@H](SC(=O)c4c(C)c(I)c(O[C@@H]5O[C@@H](C)[C@H](O)[C@@H](OC)[C@H]5O)c(OC)c4OC)[C@@H](C)O3)[C@@H]2O)C[C@@H]1OC [Calicheamicin]
potency relative to adriamycin [1]: over 1,000 times

Compound: 1-(2,6-difluorophenyl)-N-[3-(5-morpholin-4-ylmethyl-1H-benzimidazol-2-yl)-1H-pyrazol-4-yl]-urea [D-glucuronate]
solubility ([2]; acid addition salts of 1-(2,6-difluorophenyl)-N-[3-(5-morpholin-4-ylmethyl-1H-benzimidazol-2-yl)-1H-pyrazol-4-yl]-urea, liquid carrier (e.g. water)): greater than 25 mg/ml

Compound: Cc1ccc(NC(=O)c2ccc(CN3CCN(C)CC3)cc2)cc1Nc1nccc(-c2cccnc2)n1 [imatinib, 4-[(4-methyl-1-piperazinyl)methyl]-N-[4-methyl-3-[[4-(3-pyridinyl)-2-ylpyridinyl]amino]-phenyl]benzamide methanesulfonate]
duration of remissions [3]: 2-6 months

solubility [2]: > 100 mg/mL
Compound: O=C(Nc1c[nH]nc1-c1nc2cc(CN3CCOCC3)ccc2[nH]1)Nc1c(F)cccc1F [esylate, 1-(2,6-difluorophenyl)-N-[3-(5-morpholin-4-ylmethyl-1H-benzimidazol-2-yl)-1H-pyrazol-4-yl]-urea]

Compound: O=C(NC1CCNCC1)c1n[nH]cc1NC(=O)c1c(Cl)cccc1Cl [Example 1]
IC50 [4]: < 20 µM

TGA significant event (thermally induced partial degradation prior to melt) ([5]; ambient to 300° C.): about 288 °C | TGA mass loss ([5]; up to 150° C., crystals from Example 5 Step 8): approximately 0.2% | weight loss during initial drying ([6]; 0% RH, 25° C.): approximately 0.01% | total weight increase upon equilibration ([6]; stepwise 0-90% RH, equilibration at 90% RH, 25° C.): 0.24%
Compound: CS(=O)(=O)N1CCC(NC(=O)c2n[nH]cc2NC(=O)c2c(Cl)cccc2Cl)CC1
hygroscopicity / hydrate formation ([6]; storage in elevated humidity conditions): physically stable with regard to hygroscopicity

Compound: CCCCCCCCCCCCCCCCCCOP(=O)([O-])OC1CC[N+](C)(C)CC1 [KRX-0401]
half-life [7]: ~100 h

Compound: Nc1nc(F)nc2c1ncn2[C@@H]1O[C@H](CO)[C@@H](O)[C@@H]1O [fludarabine]
duration of progression-free survival [8]: 33 months | rate of complete responses [8]: 27%

Compound: O=S(=O)(NCCNCC=C(c1ccccc1)c1ccccc1)c1cccc2cnccc12 [NL-71-101]
IC50 (PKG): 36 µM | IC50 (PKC): 104 µM | apoptosis (OVCAR-3 tumour cells): induced apoptosis

Compound: CC1=C(/C=C/C(C)=C/C=C/C(C)=C/C(=O)O)C(C)(C)CCC1 [Tretinoin, all-trans retinoic acid]
remissions induced [9]: 64-100%

Compound: C/C1=C/C[C@@H](/C(C)=C/c2csc(C)n2)OC(=O)C[C@H](O)C(C)(C)C(=O)[C@H](C)[C@@H](O)[C@@H](C)CCC1 [desoxyepothilone B]
IC50 [10]: 0.017 µM

Compound: C[C@H](O)C(=O)O.O=C(Nc1c[nH]nc1-c1nc2cc(CN3CCOCC3)ccc2[nH]1)NC1CC1 [L-lactate salt, 1-cyclopropyl-3-[3-(5-morpholin-4-ylmethyl-1H-benzoimidazol-2-yl)-1H-pyrazol-4-yl]-urea]
GVS isotherm behaviour [11]: does not display hygroscopic behaviour and does not form a hydrate
